Measured values from the supplement of paper PMC10307832.

Tests used:
Assay in all cases: relative viability (nuclei count vs DMSO), 5 days (fraction); higher = more cells survive
Motesanib + Tozasertib = compound: CC1(C)CNc2cc(NC(=O)c3cccnc3NCc3ccncc3)ccc21 [Motesanib] + Cc1cc(Nc2cc(N3CCN(C)CC3)nc(Sc3ccc(NC(=O)C4CC4)cc3)n2)n[nH]1 [Tozasertib] (partner 0.1 µM)
Method in brief: (§1)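 Lung cancer cell lines, seeded in 1536-well plates, were treated the following day by pin tool with a single drug or with five library-drug doses (not always all listed) in √10 steps on top of a fixed anchor-drug dose. Cells were fixed and nuclei stained in one step after 5 days, and nuclei were counted. Relative viability is the nuclei count for treated wells divided by that for vehicle wells, reported as medians of duplicate plates.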

Motesanib + Olaparib = compound: CC1(C)CNc2cc(NC(=O)c3cccnc3NCc3ccncc3)ccc21 [Motesanib] + O=C(c1cc(Cc2n[nH]c(=O)c3ccccc23)ccc1F)N1CCN(C(=O)C2CC2)CC1 [Olaparib] (partner 8 µM)
Method in brief: as §1

Motesanib + Lapatinib = compound: CC1(C)CNc2cc(NC(=O)c3cccnc3NCc3ccncc3)ccc21 [Motesanib] + CS(=O)(=O)CCNCc1ccc(-c2ccc3ncnc(Nc4ccc(OCc5cccc(F)c5)c(Cl)c4)c3c2)o1 [Lapatinib] (partner 2 µM)
Method in brief: as §1

Motesanib + Bortezomib = compound: CC1(C)CNc2cc(NC(=O)c3cccnc3NCc3ccncc3)ccc21 [Motesanib] + CC(C)C[C@H](NC(=O)[C@H](Cc1ccccc1)NC(=O)c1cnccn1)B(O)O [Bortezomib] (partner 0.002 µM)
Method in brief: as §1

Row | Cell Line | relative viability (Motesanib + Tozasertib; first compound 0.01 µM) | relative viability (Motesanib + Tozasertib; first compound 0.03162 µM) | relative viability (Motesanib + Tozasertib; first compound 0.1 µM) | relative viability (Motesanib + Tozasertib; first compound 0.3162 µM) | relative viability (Motesanib + Tozasertib; first compound 1 µM) | relative viability (Motesanib + Olaparib; first compound 0.01 µM) | relative viability (Motesanib + Olaparib; first compound 0.03162 µM) | relative viability (Motesanib + Olaparib; first compound 0.1 µM) | relative viability (Motesanib + Olaparib; first compound 0.3162 µM) | relative viability (Motesanib + Olaparib; first compound 1 µM) | relative viability (Motesanib + Lapatinib; first compound 0.01 µM) | relative viability (Motesanib + Lapatinib; first compound 0.03162 µM) | relative viability (Motesanib + Lapatinib; first compound 0.1 µM) | relative viability (Motesanib + Lapatinib; first compound 0.3162 µM) | relative viability (Motesanib + Lapatinib; first compound 1 µM) | relative viability (Motesanib + Bortezomib; first compound 0.01 µM) | relative viability (Motesanib + Bortezomib; first compound 0.03162 µM) | relative viability (Motesanib + Bortezomib; first compound 0.1 µM) | relative viability (Motesanib + Bortezomib; first compound 0.3162 µM) | relative viability (Motesanib + Bortezomib; first compound 1 µM)
1 | NCI-H2342 | 0.493 | 0.496 | 0.438 | 0.562 | 0.583 | 0.472 | 0.569 | 0.403 | 0.469 | 0.463 |  |  |  |  |  |  |  |  |  | 
2 | HCC-15 | 0.454 | 0.278 | 0.372 | 0.451 | 0.392 | 0.632 | 0.74 | 0.739 | 0.702 | 0.724 | 0.849 | 0.874 | 0.723 | 0.947 | 0.886 | 0.97 | 0.968 | 0.886 | 1.16 | 1.07
3 | A-427 | 0.185 | 0.191 | 0.24 | 0.236 | 0.173 | 0.78 | 0.7 | 0.672 | 0.732 | 0.777 | 0.668 | 1.02 | 0.896 | 1.1 | 1.02 | 1.03 | 0.956 | 0.973 | 0.969 | 1.05
4 | NCI-H2228 | 0.355 | 0.184 | 0.289 | 0.272 | 0.251 | 0.794 | 0.74 | 0.668 | 0.838 | 0.749 | 0.902 | 1.13 | 0.848 | 1.24 | 1.08 | 0.957 | 1.13 | 0.881 | 1.28 | 1.01
5 | NCI-H1734 | 0.312 | 0.253 |  | 0.25 | 0.254 | 0.54 | 0.686 | 0.72 | 0.636 | 0.565 | 0.99 | 1.14 | 1.03 | 1.14 | 0.99 | 1 | 0.929 | 1.01 | 0.918 | 1.09
6 | PC-14 | 0.563 | 0.657 | 0.518 | 0.618 | 0.617 | 0.224 | 0.32 | 0.322 | 0.258 | 0.204 | 0.318 | 0.264 | 0.336 | 0.334 | 0.339 | 0.87 | 0.975 | 0.95 | 0.81 | 1.06
7 | NCI-H1915 | 0.401 | 0.408 | 0.478 | 0.456 | 0.434 | 0.246 | 0.262 | 0.258 | 0.277 | 0.286 | 0.99 | 0.929 | 0.866 | 0.939 | 1.01 | 0.959 | 0.929 | 0.936 | 0.98 | 0.989
8 | NCI-H1666 | 0.665 | 0.599 | 0.634 | 0.6 | 0.617 | 0.743 | 0.761 | 0.776 | 0.851 | 0.705 | 0.882 | 0.709 | 0.691 | 0.69 | 0.667 | 0.845 | 0.766 | 0.816 | 0.77 | 0.862
9 | HCC-366 | 0.124 | 0.115 | 0.126 | 0.139 | 0.0819 | 0.278 | 0.375 | 0.403 | 0.352 | 0.397 | 0.913 | 1.08 | 1.06 | 1.13 | 1.06 | 1.06 | 1 | 1.06 | 0.997 | 1.09
10 | SK-MES-1 | 0.822 | 0.91 | 0.958 | 0.935 | 0.922 | 0.736 | 0.725 | 0.736 | 0.677 | 0.575 | 0.46 | 0.481 | 0.418 | 0.465 | 0.454 |  |  |  |  | 
11 | SW 1573 | 0.144 | 0.145 | 0.187 | 0.222 | 0.177 | 0.504 | 0.485 | 0.42 | 0.588 | 0.504 | 1.16 | 1.09 | 1 | 0.929 | 1.33 | 1.17 | 1.02 | 1.09 | 1.03 | 0.928
12 | NCI-H661 | 0.372 | 0.357 | 0.367 | 0.361 | 0.351 | 0.748 | 0.76 | 0.784 | 0.749 | 0.774 | 0.429 | 0.563 | 0.511 | 0.386 | 0.49 | 0.795 | 0.767 | 0.765 | 0.849 | 1.04
13 | PC-3 [JPC-3] | 0.855 | 0.931 | 0.884 | 0.864 | 0.85 | 1.14 | 1.18 | 1.2 | 1.18 | 1.16 | 0.465 | 0.459 | 0.451 | 0.42 | 0.465 | 0.921 | 0.802 | 0.879 | 0.922 | 0.968
14 | NCI-H1623 | 0.414 | 0.426 | 0.457 | 0.425 | 0.475 |  |  |  |  |  |  |  |  |  |  |  |  |  |  | 
15 | Calu-6 |  |  |  |  |  | 0.56 | 0.603 | 0.456 | 0.546 | 0.536 | 1.06 | 1.05 | 1.02 | 0.997 | 0.999 | 0.896 | 1.04 | 0.926 | 1.05 | 0.889
16 | LC-2-ad | 0.447 | 0.362 | 0.439 | 0.476 | 0.45 | 0.689 | 0.709 | 0.816 | 0.733 | 0.785 | 0.947 | 0.921 | 0.999 | 1.1 | 0.843 | 1.02 | 1.03 | 1.04 | 1.14 | 0.942
17 | CAL-12T | 0.348 | 0.254 | 0.351 | 0.384 | 0.371 | 0.674 | 0.731 | 0.699 | 0.683 | 0.736 |  |  | 0.67 | 0.649 | 0.65 |  |  | 0.906 | 1.16 | 0.926
18 | RERF-LC-KJ | 0.536 | 0.478 | 0.527 | 0.501 | 0.505 | 0.981 | 0.991 | 0.896 | 1.08 | 1.04 | 0.895 | 0.876 | 0.958 | 0.827 | 0.853 | 1.01 | 1.13 | 1.09 | 1.09 | 1.03
